From patent US20260256792A1, “TREATMENT OF CHRONIC SPONTANEOUS URTICARIA BY ADMINISTERING (R)-2-[3-[4-AMINO-3-(2-FLUORO-4-PHENOXY-PHENYL)PYRAZOLO[3,4-D]PYRIMIDIN-1-YL]PIPERIDINE-1-CARBONYL]-4-METHYL-4-[4-(OXETAN-3-YL)PIPERAZIN-1-YL]PENT-2-ENENITRILE” (priority 2023, published 2026)

Legend:
[1] = tested on: rat collagen-induced arthritis model; settings: cited from earlier work
[2] = tested on: moderate-to-severe chronic spontaneous urticaria (CSU); test: Phase 2 CSU study: Patient Global Impression of Change (PGIC); format: in vivo, human; settings: for PGIC Mean (SD) / PGIC Median / PGIC category A little better, patients / PGIC category A little worse, patients / PGIC category Moderately better, patients / PGIC category Moderately worse, patients / PGIC category No change, patients / PGIC category Very much better, patients / PGIC category Very much worse, patients: omalizumab-naïve population; for PGIC LS Mean (SE) / PGIC LS Mean Diff vs. placebo (95% CI): omalizumab-naïve, ANCOVA
From the text: The study comprises a 12 week, randomized, double-blind, placebo-controlled, multi-center, dose-ranging efficacy and safety phase, followed by a 40 week open label extension (OLE) phase (see FIG. 1).
The study consists of three phases and an optional OLE phase.
The PGIS is a 1-item measure that asks participants to provide a self-assessment of their overall CSU severity for the past week on a 4 point scale. Response choices are: “None”, “Mild”, “Moderate” and “Severe”. The PGIC is a 1-item measure that asks the participant to provide a self-assessment of overall change in their CSU since the participant started taking the study medication on a 7-point scale. The response options range from “Very Much Better” to “Very Much Worse.” Patients were to complete questionnaires for the 2 items during their site visit.

CC(C)(C=C(C#N)C(=O)N1CCC[C@@H](n2nc(-c3ccc(Oc4ccccc4)cc3F)c3c(N)ncnc32)C1)N1CCN(C2COC2)CC1 [rilzabrutinib, (R)-2-[3-[4-amino-3-(2-fluoro-4-phenoxy-phenyl)pyrazolo[3,4-d]pyrimidin-1-yl]piperidine-1-carbonyl]-4-methyl-4-[4-(oxetan-3-yl)piperazin-1-yl]pent-2-enenitrile]
rat collagen-induced arthritis [1]: full disease reversal
quality of life as measured by PGIC ([2]; 400 mg TID): improvement
PGIC Mean (SD) ([2]; Week 2, 400 mg BID): 1.61
PGIC Median ([2]; Week 2, 400 mg BID): 1.00
PGIC category A little better, patients ([2]; Week 2, 400 mg BID): 6 (19.4)
PGIC category A little worse, patients ([2]; Week 2, 400 mg BID): 1 (3.2)
PGIC category Moderately better, patients ([2]; Week 2, 400 mg BID): 5 (16.1)
PGIC category Moderately worse, patients ([2]; Week 2, 400 mg BID): 1 (3.2)
PGIC category No change, patients ([2]; Week 2, 400 mg BID): 6 (19.4)
PGIC category Very much better, patients ([2]; Week 2, 400 mg BID): 11 (35.5)
PGIC category Very much worse, patients ([2]; Week 2, 400 mg BID): 1 (3.2)
PGIC LS Mean (SE) ([2]; Week 2, 400 mg BID): 1.53
PGIC LS Mean Diff vs. placebo (95% CI) ([2]; Week 2, 400 mg BID): −0.81
PGIC Mean (SD) ([2]; Week 2, 400 mg QPM): 2.33
PGIC Median ([2]; Week 2, 400 mg QPM): 3.00
PGIC category A little better, patients ([2]; Week 2, 400 mg QPM): 7 (21.2)
PGIC category A little worse, patients ([2]; Week 2, 400 mg QPM): 1 (3.0)
PGIC category Moderately better, patients ([2]; Week 2, 400 mg QPM): 5 (15.2)
PGIC category Moderately worse, patients ([2]; Week 2, 400 mg QPM): 0
PGIC category No change, patients ([2]; Week 2, 400 mg QPM): 16 (48.5)
PGIC category Very much better, patients ([2]; Week 2, 400 mg QPM): 3 (9.1)
PGIC category Very much worse, patients ([2]; Week 2, 400 mg QPM): 1 (3.0)
PGIC LS Mean (SE) ([2]; Week 2, 400 mg QPM): 2.12
PGIC LS Mean Diff vs. placebo (95% CI) ([2]; Week 2, 400 mg QPM): −0.22
PGIC Mean (SD) ([2]; Week 2, 400 mg TID): 1.42
PGIC Median ([2]; Week 2, 400 mg TID): 1.00
PGIC category A little better, patients ([2]; Week 2, 400 mg TID): 7 (21.2)
PGIC category A little worse, patients ([2]; Week 2, 400 mg TID): 0
PGIC category Moderately better, patients ([2]; Week 2, 400 mg TID): 7 (21.2)
PGIC category Moderately worse, patients ([2]; Week 2, 400 mg TID): 1 (3.0)
PGIC category No change, patients ([2]; Week 2, 400 mg TID): 5 (15.2)
PGIC category Very much better, patients ([2]; Week 2, 400 mg TID): 12 (36.4)
PGIC category Very much worse, patients ([2]; Week 2, 400 mg TID): 1 (3.0)
PGIC LS Mean (SE) ([2]; Week 2, 400 mg TID): 1.43
PGIC LS Mean Diff vs. placebo (95% CI) ([2]; Week 2, 400 mg TID): −0.91
PGIC Mean (SD) ([2]; Week 4, 400 mg BID): 1.67
PGIC Median ([2]; Week 4, 400 mg BID): 1.00
PGIC category A little better, patients ([2]; Week 4, 400 mg BID): 6 (18.2)
PGIC category A little worse, patients ([2]; Week 4, 400 mg BID): 2 (6.1)
PGIC category Moderately better, patients ([2]; Week 4, 400 mg BID): 8 (24.2)
PGIC category Moderately worse, patients ([2]; Week 4, 400 mg BID): 0
PGIC category No change, patients ([2]; Week 4, 400 mg BID): 7 (21.2)
PGIC category Very much better, patients ([2]; Week 4, 400 mg BID): 9 (27.3)
PGIC category Very much worse, patients ([2]; Week 4, 400 mg BID): 1 (3.0)
PGIC LS Mean (SE) ([2]; Week 4, 400 mg BID): 1.59
PGIC LS Mean Diff vs. placebo (95% CI) ([2]; Week 4, 400 mg BID): −0.49
PGIC Mean (SD) ([2]; Week 4, 400 mg QPM): 2.24
PGIC Median ([2]; Week 4, 400 mg QPM): 2.00
PGIC category A little better, patients ([2]; Week 4, 400 mg QPM): 10 (29.4)
PGIC category A little worse, patients ([2]; Week 4, 400 mg QPM): 5 (14.7)
PGIC category Moderately better, patients ([2]; Week 4, 400 mg QPM): 4 (11.8)
PGIC category Moderately worse, patients ([2]; Week 4, 400 mg QPM): 1 (2.9)
PGIC category No change, patients ([2]; Week 4, 400 mg QPM): 7 (20.6)
PGIC category Very much better, patients ([2]; Week 4, 400 mg QPM): 6 (17.6)
PGIC category Very much worse, patients ([2]; Week 4, 400 mg QPM): 1 (2.9)
PGIC LS Mean (SE) ([2]; Week 4, 400 mg QPM): 2.06
PGIC LS Mean Diff vs. placebo (95% CI) ([2]; Week 4, 400 mg QPM): −0.02
PGIC Mean (SD) ([2]; Week 4, 400 mg TID): 1.14
PGIC Median ([2]; Week 4, 400 mg TID): 1.00
PGIC category A little better, patients ([2]; Week 4, 400 mg TID): 6 (20.7)
PGIC category A little worse, patients ([2]; Week 4, 400 mg TID): 1 (3.4)
PGIC category Moderately better, patients ([2]; Week 4, 400 mg TID): 5 (17.2)
PGIC category Moderately worse, patients ([2]; Week 4, 400 mg TID): 0
PGIC category No change, patients ([2]; Week 4, 400 mg TID): 4 (13.8)
PGIC category Very much better, patients ([2]; Week 4, 400 mg TID): 13 (44.8)
PGIC category Very much worse, patients ([2]; Week 4, 400 mg TID): 0
PGIC LS Mean (SE) ([2]; Week 4, 400 mg TID): 1.18
PGIC LS Mean Diff vs. placebo (95% CI) ([2]; Week 4, 400 mg TID): −0.90
PGIC Mean (SD) ([2]; Week 8, 400 mg BID): 1.42
PGIC Median ([2]; Week 8, 400 mg BID): 1.00
